Experimental data: patent US9018248B2, “Fatty acid derivatives of catechins and methods of their use” (Genesis Group Inc., priority 2010, dated 2015)

Legend:
supercoiled pBR322 DNA = assay: Hydroxyl radical-induced DNA scission; conditions: 1 μM test compounds, H2O2/Fe2SO4, 37° C., 1 hour, FIG. 2
Description: For hydroxyl radical-induced DNA oxidation, 2 μL of test compounds dissolved in ethanol were added into an Eppendorf tube and the solvent was evaporated under a nitrogen stream. To the tube 2 μL of distilled water were added, followed by thorough vortexing for 1 min. The following reagents were then added to the tube in the order as stated: 2 μL of PBS (pH7.4), 2 μL of supercoiled pBR322 DNA, 2 μL of H2O2 and 2 μL of Fe2SO4. The mixture (10 μL) containing 1 μM test compounds, 0.1M PBS, 10 μg/ml DNA, 0.2 mM H2O2 and 0.1 mM Fe2SO4 (final concentration/assay) was incubated at 37° C. for 1 hour.
After incubation, 1 μL of loading dye (0.25% bromophenol blue/0.25% xylene cyanol/50% glycerol) was added, and the whole mixture was loaded onto an agarose gel. […] The images were analyzed using AlphaEase stand-alone software (Alpha Innotech Co., San Leandro, Calif.) and the intensity or density of the bands (obtained from densitometer) was used as the indicator of concentration of the native (supercoiled) and nicked DNA fractions. Antioxidant activity was calculated as DNA retention according to the following equation: % retention=100×(native DNAsample/native DNAblank) where, DNAsample and DNAblank are normalized concentrations of native supercoiled DNA in total DNA for sample groups and blank, respectively. […]

[1] = Reducing power (Fe3+-Fe2+ transformation); conditions: test compounds 1 mM in 95% ethanol, ascorbic acid equivalents
Description: An ORAC (Oxygen Radical Absorbance Capacity) assay was carried out using a Fluostar Optima plate reader (BMG Labtech, Durham, N.C.) equipped with an incubator and two injector pumps. A modified method for lipophilic antioxidants was followed, in which randomly methylated cyclodextrin (RMCD) was used as water solubility enhancer, as described by Huang et al, J. Agric. Food Chem., 2002, 50, 1815-1821. Trolox standards (6.25-50 μM) and samples (0.25 μM) were dissolved in acetone/water (1:1, v/v) containing 7% RMCD. Fluorescein and […] [2,2′-azobis(2-aminopropane)dihydrochloride] were used as the probe and radical generator, respectively. […] Fluorescence was measured at an excitation wavelength of 485 nm and emission of 520 nm. […] (3b) Reducing Power The reducing power of EGCG and its derivatives (compounds 1a-1c) was determined according to Oyaizu (1986). […] The content was mixed well and the absorbance was recorded at 700 nm. Higher absorbance of the reaction mixture indicates greater reducing power. […] (3c) Metal Chelation The metal chelation capacity was measured following a procedure by Decker E. A. et al., J. Agric. […] The absorbance was measured afterwards at 562 nm. A blank without ferrozine was run for each compound, since the antioxidant-Fe^2+ complex gives a colour that might interfere with the absorbance reading. […] The spectrum was recorded after 1 min. […]

SMILES	Antioxidant activity against hydroxyl radical-induced DNA scission (supercoiled pBR322 DNA)	Reducing power relative to ascorbic acid [1]
CCC=CCC=CCC=CCC=CCC=CCCCC(=O)Oc1cc(C(=O)OC2Cc3c(O)cc(O)cc3OC2c2cc(OC(=O)CCCC=CCC=CCC=CCC=CCC=CCC)c(O)c(OC(=O)CCCC=CCC=CCC=CCC=CCC=CCC)c2)cc(OC(=O)CCCC=CCC=CCC=CCC=CCC=CCC)c1O (centres unmarked) [Compound 1b]	the most potent antioxidant among all	
O=C(O[C@@H]1Cc2c(O)cc(O)cc2O[C@@H]1c1cc(O)c(O)c(O)c1)c1cc(O)c(O)c(O)c1 [EGCG, Epigallocatechin gallate, reference compound]		highest reducing power
